Results published in publication PMC11997059, “Drugit: crowd-sourcing molecular design of non-peptidic VHL binders” (Nature Communications, 2025).
≈ marks a conversion by molar mass, not a printed value. Like-named read-outs stand apart in the source and are kept apart here.

Assays:
[1] = tested on: VHL; details: read-out: TR-FRET IC50 (value marked *: FP assay), ref as reported previously; cited from earlier work
[2] = Solubility testing (aqueous, LCUV); format: physicochemical; details: aqueous buffer, kinetic from dmso stock, pH 6.8, final concentration 125 µg/mL
Description: Dilution into a 1:1 mixture of acetonitrile and water was used as a reference. After 24 h, the incubations were filtrated, and the filtrate was analyzed by LCUV.

[3] = Bidirectional permeability in Caco2 cells; format: in vitro ADME; details: human, Caco-2, 1 or 10 µM, pH 7.4; for Papp A→B: apical to basolateral
Description: Bidirectional permeability of test compounds across a Caco2 cell monolayer was measured as described previously. […] Cells were incubated with the compounds for up to 2 h, and samples from the opposite (receiver) compartment were taken at different time points.

[4] = molecular target: 13C-methyl labeled VCB complex (Homo sapiens, UniProt P40337); assay: Protein-observed NMR titration / hit validation; details: for induced CSPs, Val and Leu region (binding region): 200 µM 13C labeled VCB, 500 µM VH298 or reference molecule 2, 1000 µM of 1
[5] = molecular target: VCB (VHL-ElonginC-ElonginB) complex (Homo sapiens, UniProt P40337); assay: TR-FRET VCB—VHL tracer binding assay
[6] = NMR detected solubility in NMR buffer; format: physicochemical; details: 500 µM target, 20 mM TRIS, 100 mM NaCl, pH 7.5 in D2O, 1H NMR vs maleic acid
[7] = read-out: TR-FRET IC50, Cy5-labeled VHL tracer, 10 nM His-tagged VCB, mean ± s.d., 1 as diastereomeric mixture

VCB (VHL-ElonginC-ElonginB) complex, sequence (P40337 54-213): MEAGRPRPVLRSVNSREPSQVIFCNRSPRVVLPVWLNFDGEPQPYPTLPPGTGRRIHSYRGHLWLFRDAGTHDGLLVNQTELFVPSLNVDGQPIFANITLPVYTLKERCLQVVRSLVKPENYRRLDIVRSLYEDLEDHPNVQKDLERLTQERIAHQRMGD
VCB (VHL-ElonginC-ElonginB) complex, sequence (Q15370 1-104 partner limits assumed): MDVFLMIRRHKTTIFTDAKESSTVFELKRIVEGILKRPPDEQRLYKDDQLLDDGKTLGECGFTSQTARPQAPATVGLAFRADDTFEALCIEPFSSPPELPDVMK
VCB (VHL-ElonginC-ElonginB) complex, sequence (Q15369 17-112 partner limits assumed): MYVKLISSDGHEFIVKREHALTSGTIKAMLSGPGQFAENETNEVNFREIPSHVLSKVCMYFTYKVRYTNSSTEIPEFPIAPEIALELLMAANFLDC
13C-methyl labeled VCB complex, sequence (P40337 54-213): as the sequence (P40337 54-213) above
13C-methyl labeled VCB complex, sequence (Q15370 1-104 partner limits assumed): as the sequence (Q15370 1-104 partner limits assumed) above
13C-methyl labeled VCB complex, sequence (Q15369 17-112 partner limits assumed): as the sequence (Q15369 17-112 partner limits assumed) above

SMILES	IC50 [5, 7]	solubility [6]	also measured
Cc1ncsc1-c1ccc(CNC(=O)[C@@H]2C[C@@H](O)CN2C(=O)[C@@H](NC(=O)C2(F)CC2)C(C)(C)C)cc1 [Reference molecule 1]			IC50 [1]: […]; solubility at 24 h [2]: > 115 µg/mL; Papp A→B [3]: 2.9 ×10⁻⁶ cm/s
Cc1cc(CC(=O)N2C[C@H](O)C[C@H]2C(=O)NCc2ccc(Cl)cc2)on1 [Reference molecule 2]	132 ± 38 µM		induced CSPs, Val and Leu region (binding region) [4]: interact with the same binding region; Kd ([4]; read-out: NMR KD, fit of dose-dependent chemical shifts of peaks #1 and #2, two independent titrations): 29 ± 1 µM; solubility at 24 h [2]: > 88 µg/mL; efflux ratio [3]: 4.8
Cc1ncsc1-c1ccc(CNC(=O)[C@@H]2C[C@@H](O)CN2C(=O)[C@@H](NC(=O)C2(C#N)CC2)C(C)(C)C)cc1 [VH298, (2S,4R)-1-((S)-2-(1-Cyanocyclopropanecarboxamido)−3,3-dimethylbutanoyl)-4-hydroxy-N-(4-(4-methylthiazol-5-yl)benzyl)pyrrolidine-2-carboxamide]			induced CSPs, Val and Leu region (binding region) [4]: interact with the same binding region
Cc1ncsc1-c1ccc(CNC(=O)C2CC(O)CN(c3ccccn3)C2=O)cc1 (centres unmarked) [compound 1]			Kd [4]: 182 ± 76 µM; induced CSPs, Val and Leu region (binding region) [4]: interact with the same binding region; solubility ([6]; NMR buffer, aqueous buffer): > 500 µM; solubility at 24 h [2]: > 98 µg/mL; IC50 [5]: 264 ± 30 µM; Papp A→B [3]: 23 ×10⁻⁶ cm/s
Cc1ncsc1-c1ccc(CNC(=O)c2cc(=O)cc(Cl)[nH]2)cc1 [compound 2]	> 100 µM	20.0 µM (≈ 7.2 µg/mL)	
Cc1ncsc1-c1ccc(CNC(=O)c2cc(=O)cc(-c3ccccc3)[nH]2)cc1 [compound 3]	13.8 ± 1.8 µM	280.0 µM (≈ 112 µg/mL)	
Cc1ncsc1-c1ccc(CNC(=O)c2c[nH]cc(Br)c2=O)cc1 [compound 4]	> 100 µM		solubility ([6]; NMR buffer, aqueous buffer): 40 µM (≈ 16.2 µg/mL)
Cc1ncsc1-c1ccc(CNC(=O)c2c[nH]cc(-c3ccccc3)c2=O)cc1 [compound 5]	> 100 µM	20.0 µM (≈ 8.03 µg/mL)	
Cc1ncsc1-c1ccc(CNCc2cc(CO)nc(N(C)c3ccccc3)c2)cc1 [compound 6]	> 500 µM	70.0 µM (≈ 30.1 µg/mL)	
Cc1ncsc1-c1ccc(CN(Cc2cc(Cl)nc(CO)c2)C(=O)OC(C)(C)C)cc1 [compound 7]	106 ± 5.2 µM	60.0 µM (≈ 27.6 µg/mL)	
CN(CCNCc1ccccc1)c1cnn[nH]1 [compound 8]	> 500 µM	430.0 µM (≈ 99.5 µg/mL)	
Cc1ncsc1-c1ccc(CNc2cc(CO)cc3c2cnn3C)cc1 [compound 9]			solubility ([6]; NMR buffer, aqueous buffer): 110 µM (≈ 40.1 µg/mL); IC50 [5]: > 100 µM
Cc1ncsc1-c1ccc(CNc2cc(CO)cc3nn(C)cc23)cc1 [compound 10]			solubility ([6]; NMR buffer, aqueous buffer): 240 µM (≈ 87.5 µg/mL); IC50 [5]: 167 ± 47 µM
Cc1ncsc1-c1ccc(C(=O)Nc2cc(CO)cc3c2cnn3C)cc1 [compound 11]	> 500 µM	180.0 µM (≈ 68.1 µg/mL)	
Cc1ncsc1-c1ccc(C(=O)Nc2cc(CO)cc3nn(C)cc23)cc1 [compound 12]	255 ± 45 µM	70.0 µM (≈ 26.5 µg/mL)	
Cc1ncsc1-c1ccc(CNC(=O)c2cc(O)cc(Br)c2)cc1 [compound 13]	> 100 µM	20.0 µM (≈ 8.07 µg/mL)	
Cc1ncsc1-c1ccc(CNC(=O)c2cc(O)cc(-c3ccccc3)c2)cc1 [compound 14]	15.6 ± 1.2 µM	< 10.0 µM	
Cc1ncsc1-c1ccc(-c2ccc3cccc(C(N)=O)c3c2)cc1 [compound 15]			solubility ([6]; NMR buffer, aqueous buffer): < 10 µM
Cc1ncsc1-c1ccc(-c2ccc3nccc(C(N)=O)c3c2)cc1 [compound 16]	8.8 ± 0.8 µM	< 10.0 µM	
Cc1ncsc1-c1ccc(CNC(=O)[C@@H]2C[C@@H](O)Cc3ccccc32)cc1 [compound 17]	313 ± 135 µM	400.0 µM (≈ 151 µg/mL)	
O=C(Cc1ccc2cc(O)ccc2c1)Nc1cc[nH]n1 [compound 22]			solubility ([6]; NMR buffer, aqueous buffer): 350 µM (≈ 93.6 µg/mL); IC50 [5]: 315 ± 44 µM
Cc1ncsc1-c1ccc(CNC(=O)[C@@H]2C[C@@H](O)C[C@H](c3ccccc3)C2)cc1 [compound 24]			solubility ([6]; NMR buffer, aqueous buffer): < 10 µM; IC50 [5]: > 100 µM
Cc1ncsc1-c1ccc(CNC(=O)[C@H]2C[C@H](O)C[C@@H](c3ccccc3)C2)cc1 [compound 25]			solubility ([6]; NMR buffer, aqueous buffer): < 10 µM; IC50 [5]: > 100 µM
O=S1(=O)Cc2ccccc2-c2[nH]ncc21 [compound 26]			solubility ([6]; NMR buffer, aqueous buffer): > 500 µM; IC50 [5]: 265 ± 74 µM
Cc1ncsc1-c1ccc(CNc2cc(C(C)C)c[nH]c2=O)cc1 [compound 33]			solubility ([6]; NMR buffer, aqueous buffer): 50 µM (≈ 17 µg/mL); IC50 [5]: 71.7 ± 49.3 µM
Cc1ncsc1-c1ccc(CNCc2cc(O)cc(N(C)c3ccccc3)c2)cc1 [compound 40]			solubility ([6]; NMR buffer, aqueous buffer): < 10 µM; IC50 [5]: 67.8 ± 5.1 µM

The next lines start with results.

IC50 [5, 7]	solubility [6]	SMILES	also measured
166 ± 77 µM	> 500.0 µM	Cc1ncsc1-c1ccc(CNC(=O)[C@H]2C[C@H](O)Cc3ccccc32)cc1 [compound 18]	
> 100 µM	230.0 µM (≈ 94 µg/mL)	Cc1ncsc1-c1ccc(CNC(=O)C2CC(O)CN(c3ccccn3)C2)cc1 (centres unmarked) [compound 19]	
> 100 µM	110.0 µM (≈ 44.7 µg/mL)	Cc1ncsc1-c1ccc(CNC(=O)C2CC(O)CC(c3ccccc3)C2)cc1 (centres unmarked) [compound 23]	
> 500 µM	> 500.0 µM	O=S1(=O)Cc2ccccc2-c2[nH]nc(Br)c21 [compound 27]	
244 ± 22 µM	360.0 µM (≈ 117 µg/mL)	O=S1(=O)Cc2ccccc2-c2[nH]nc(NCc3ccccc3)c21 [compound 28]	
175 ± 18 µM		O=[N+]([O-])c1ccc2c(c1)CS(=O)(=O)c1cn[nH]c1-2 [compound 29]	
> 100 µM	20.0 µM (≈ 8.09 µg/mL)	Cc1ncsc1-c1ccc(CNC(=O)c2cc(Br)c[nH]c2=O)cc1 [compound 34]	
	< 10.0 µM	Cc1ncsc1-c1ccc(CNC(=O)c2cc(-c3ccccc3)c[nH]c2=O)cc1 [compound 35]	
13 ± 4.5 µM	< 10.0 µM	Cc1ncsc1-c1ccc(CC(=O)Nc2c[nH]c3ccccc23)cc1 [compound 36]	
> 100 µM	< 10.0 µM	Cc1ncsc1-c1ccc(CNC(=O)Cc2ccc(-c3ccccc3)cc2CO)cc1 [compound 37]	
85.7 ± 16.2 µM	80.0 µM (≈ 31.1 µg/mL)	Cc1ncsc1-c1ccc(CNCc2cc(O)cc(Br)c2)cc1 [compound 38]	
70.7 ± 0.4 µM	< 10.0 µM	Cc1ncsc1-c1ccc(CN(Cc2cc(O)cc(Br)c2)C(=O)OC(C)(C)C)cc1 [compound 39]	
> 100 µM	< 10.0 µM	Cc1ncsc1-c1ccc(CNC(=O)c2cc(Br)cc(=O)[nH]2)cc1 [compound 41]	
144 ± 10 µM	> 500.0 µM	Cc1ncsc1-c1ccc(CNC(=O)c2cc(C#N)cc(O)n2)cc1 [compound 42]	
> 500 µM	> 500.0 µM	NC(=O)c1cn[nH]c1-c1cccc2ccccc12 [compound 43]	
